In patent US20210246120A1, “METHOD OF PREPARATION AND USE OF PHOSPHOINOSITIDE 3-KINASE INHIBITORS IN TREATING CANCER” (BIOMEDICAL RESEARCH FOUNDATION OF THE ACADEMY OF ATHENS …, priority 2018, published 2021):
pIC50: −log10 of the molar value. Read-outs that look alike come from different tables or passages of the source.

Columns and labels:
[1] = molecular target: T1, mutant PI3Kα H1047R protein (Homo sapiens, UniProt P42336, H1047R); test: In vitro cell-free PI3Kα activity assay using PIP2 containing liposomes (H1047R mutant); type: biochemical; conditions: for Inhibition selectivity for mutant PI3Kα H1047R compared to wild-type PI3Kα: ratio of IC50 WT / H1047R; for pIC50: logit-log plots, PIP2 liposomes
T1 construct: purchased Millipore
T1 sequence (P42336 whole entry H1047R): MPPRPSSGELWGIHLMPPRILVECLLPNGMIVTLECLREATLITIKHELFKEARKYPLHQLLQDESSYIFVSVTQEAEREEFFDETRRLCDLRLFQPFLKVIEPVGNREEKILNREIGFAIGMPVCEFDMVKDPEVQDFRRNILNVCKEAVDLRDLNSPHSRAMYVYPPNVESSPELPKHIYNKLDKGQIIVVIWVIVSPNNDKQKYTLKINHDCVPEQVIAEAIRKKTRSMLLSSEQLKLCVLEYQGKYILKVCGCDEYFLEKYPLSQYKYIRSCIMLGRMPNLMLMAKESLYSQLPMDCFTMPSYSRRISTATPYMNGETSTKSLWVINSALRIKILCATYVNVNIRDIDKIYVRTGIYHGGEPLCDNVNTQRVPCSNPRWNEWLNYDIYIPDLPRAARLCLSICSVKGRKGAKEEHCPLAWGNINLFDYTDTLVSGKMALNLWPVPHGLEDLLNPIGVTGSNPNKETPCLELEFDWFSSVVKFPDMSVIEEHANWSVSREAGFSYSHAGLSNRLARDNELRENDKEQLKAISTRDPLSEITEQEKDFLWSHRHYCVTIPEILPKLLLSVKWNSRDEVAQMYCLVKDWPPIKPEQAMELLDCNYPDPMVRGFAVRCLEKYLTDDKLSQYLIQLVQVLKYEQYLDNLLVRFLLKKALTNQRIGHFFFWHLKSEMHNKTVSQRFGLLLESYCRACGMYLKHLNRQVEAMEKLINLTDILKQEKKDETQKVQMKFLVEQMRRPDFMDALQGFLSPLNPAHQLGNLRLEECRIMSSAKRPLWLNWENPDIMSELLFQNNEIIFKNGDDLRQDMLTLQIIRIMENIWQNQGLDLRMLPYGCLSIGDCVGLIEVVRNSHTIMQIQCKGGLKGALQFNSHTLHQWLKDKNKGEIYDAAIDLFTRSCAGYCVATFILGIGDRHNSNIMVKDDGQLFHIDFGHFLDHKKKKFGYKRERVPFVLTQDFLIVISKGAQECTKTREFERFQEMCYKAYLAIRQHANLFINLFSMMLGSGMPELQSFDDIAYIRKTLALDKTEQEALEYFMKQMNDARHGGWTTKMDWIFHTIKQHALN
T1 sequence (P27986 whole entry partner): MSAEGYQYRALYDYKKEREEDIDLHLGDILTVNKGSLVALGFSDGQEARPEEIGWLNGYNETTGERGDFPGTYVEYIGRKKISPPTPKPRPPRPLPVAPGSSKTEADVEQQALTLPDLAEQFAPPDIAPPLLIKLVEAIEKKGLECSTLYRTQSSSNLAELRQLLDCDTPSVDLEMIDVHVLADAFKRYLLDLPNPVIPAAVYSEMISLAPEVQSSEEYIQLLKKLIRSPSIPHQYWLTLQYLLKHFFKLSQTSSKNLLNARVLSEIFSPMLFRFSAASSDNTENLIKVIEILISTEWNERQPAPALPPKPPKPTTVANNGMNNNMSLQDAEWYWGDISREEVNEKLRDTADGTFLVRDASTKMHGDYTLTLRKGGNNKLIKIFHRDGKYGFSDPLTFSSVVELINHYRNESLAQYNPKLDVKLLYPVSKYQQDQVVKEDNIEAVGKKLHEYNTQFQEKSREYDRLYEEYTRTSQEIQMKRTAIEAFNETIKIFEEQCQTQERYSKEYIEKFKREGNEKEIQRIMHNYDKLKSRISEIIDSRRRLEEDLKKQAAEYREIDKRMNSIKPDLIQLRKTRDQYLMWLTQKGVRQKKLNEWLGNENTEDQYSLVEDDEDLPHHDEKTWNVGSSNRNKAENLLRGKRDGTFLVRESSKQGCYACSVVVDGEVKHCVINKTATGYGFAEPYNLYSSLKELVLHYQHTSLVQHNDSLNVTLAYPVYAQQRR
Protocol: PI3Kα activity assays on the identified lead compound and its analogs were performed using PIP2 containing liposomes (Gkeka et al., PLoS Comput Biol 10:e1003895 (2014)). Complexes of PIK3CA (WT or […])/PIK3R1 were obtained from Millipore. The assay was based on a protocol provided by Millipore, with modifications (Papafotika et al., in preparation) which will be further described below. In this assay, PIP3 molecules produced by PI3Kα compete with biotinylated PIP3 for binding with a recombinant GST-GRP1-PH domain (amino acids 263-380), which has been produced in bacteria, bound to glutathione coated 96-well plates. Quantitation of the competed amount of biotin-PIP3 is estimated by the peroxidase activity of streptavidin-HRP that binds to the plate and provides a measure for the activity of the protein. The compounds were preincubated with all the components of the assay mixture, except PIP2, for 10 min, at 25° C. PIP2 is added in the end of the preincubation period, thereby initiating the kinase reaction. IC50 values were calculated from dose-response curves using logit-log plots. All assays were carried out in at least three independent experiments and each concentration in triplicate. PIK-108 and wortmannin were used as controls (Gkeka et al., J Phys Chem B 119:1002-1016 (2015)).
To evaluate the in vitro activity of the compound having the formula (II) (PI3K-010), PI3Kα activity assays were performed using PIP2 containing liposomes (Gkeka et al PLOS Comp Biol 2014). In this assay, PIP3 molecules produced by PI3Kα compete with biotinylated PIP3 for binding to recombinant GST-GRP1-PH domain (amino acids 263-380), which has been produced in bacteria, bound to glutathione coated 96-well plates. Quantitation of the competed amount of biotin-PIP3 is estimated by the peroxidase activity of streptavidin-HRP that binds to the plate and provides a measure for the activity of the protein. The compounds were preincubated with all the components of the assay mixture, except PIP2, for 10 min, at 25° C. […]
To evaluate the in vitro activity of the compound having the formula (III) (PI3K-010), PI3Kα activity assays were performed using PIP2 containing liposomes (Gkeka et al PLOS Comp Biol 2014). […] Quantitation of the competed amount of biotin-PIP3 is estimated by the peroxidase activity of streptavidin-HRP that binds to the plate and provides a measure for the activity of the protein. […]
To evaluate the in vitro activity of the compound having the formula (IV) (PI3K-024), PI3Kα activity assays were performed using PIP2 containing liposomes (Gkeka et al PLOS Comp Biol 2014). […] Quantitation of the competed amount of biotin-PIP3 is estimated by the peroxidase activity of streptavidin-HRP that binds to the plate and provides a measure for the activity of the protein. […]

[2] = system: breast cancer in WAPCre/exon20 Pik3ca*/MMTV-Myc mouse; test: Micro PET/CT imaging and Ki67 immunohistochemistry of breast tumors in WAPCre/exon20 Pik3ca*/MMTV-Myc mouse; type: in vivo
Excerpt: In order to test the in vivo activity of potential anticancer drugs, establishing a corresponding cancer animal model is required. To generate mouse tumors at chosen anatomical sites, a variant of a genetic scheme that is based on Cre/loxP recombination is often used. Depending on the tissue-specificity of the promoter driving Cre expression, corresponding tumors develop in progeny derived from matings between Cre-producer mice and Cre-responder partners carrying a dormant oncogenic transgene, which becomes functional after excision of an upstream-positioned floxed DNA segment that blocks its expression [see Politi et al. Oncogene 23:1558-1565 (2004); Klinakis et al. Proc Natl Acad Sci USA 106:2359-2364 (2009), Stratikopoulos et al. Cancer Cell 27:837-851 (2015)). To develop mouse strains carrying Pik3ca gain of function mutations (hereafter referred to as Pik3ca*), a knock-in gene targeting strategy was followed (Stratikopoulos et al. Cancer Cell 27:837-851 (2015)). Thus, either of the two hotspot mutations of the Pik3ca locus (in exon 20 or in exon 9) was targeted so that the mutated Pik3ca would be expressed from the endogenous locus and not from a transgene, thus, mimicking the expression found in human tumors. Activation of the exon 20 Pik3ca oncogenic mutation was achieved after mating the animals with WAPCre producers (WAP is a milk protein, the promoter of which is used for driving Cre expression, specifically in the mammary gland). Mammary tumors appeared in such animals after a very long latency of 490 days (median). […] These mice were used to test the efficacy of compounds discussed herein.
FIG. 6. Example of micro PET/CT imaging of WAPCre/exon20 Pik3ca*/MMTV-Myc mouse (compared with a negative wild-type control) at the beginning and end of treatment (one month) of breast cancer with the PI3K-010 compound.
PET/CT images of a WAPCre/exon20 Pik3ca*/MMTV-Myc mouse were acquired at the beginning and end of treatment ([…]) of breast cancer with the PI3K-010 compound (cf. FIG. 6). The compound was administered per os (by gavage) at 100 mg/Kg doses. […]

[3] = molecular target: T2, wild type PI3Kα protein (Homo sapiens, UniProt P42336); test: In vitro cell-free PI3Kα activity assay using PIP2 containing liposomes (wild type); type: biochemical
T2 construct: purchased Millipore
T2 sequence (P42336 whole entry): as the sequence (P42336 whole entry H1047R) above, with R1047H counted along it
T2 sequence (P27986 whole entry partner): as the sequence (P27986 whole entry partner) above

SMILES | Inhibition selectivity for mutant PI3Kα H1047R compared to wild-type PI3Kα [1] [fold] | Proliferation index (Ki67 immunohistochemistry) after treatment ([2]; 100 mg/Kg per os by gavage, surgically removed breast tumors, controls 69.9+5.1%) | Uptake of 18F-FDG by remnants of breast cancer (PET/CT) ([2]; 100 mg/Kg per os, beginning vs end of treatment (two weeks)) | Immunohistochemical analysis: tumor necrosis after treatment ([2]; 100 mg/Kg per os, in comparison with the controls) | pIC50 ([3]; extrapolated, very low inhibition at the highest tested concentrations, read-out: IC50 for the WT PI3Kα, estimated by extrapolation) | pIC50 ([1]; read-out: IC50 for the mutant H1047R PI3Kα) | pIC50 ([3]; logit-log plots, 100 μM ATP, PIP2 liposomes, read-out: IC50 against WT PI3Kα) | pIC50 ([1]; 100 μM ATP, read-out: IC50 against mutant H1047R PI3Kα)
c1cc(CSc2nc3ccccc3[nH]2)nc(CSc2nc3ccccc3[nH]2)c1 [PI3K-010, 2,6-bis(((1H-benzo[d]imidazol-2-yl)thio)methyl)pyridine] | 11 | 15.0+3.3% | diminished uptake | tumor necrosis |  |  |  | 
O=C(NCc1ccccc1)c1cccc(C(=O)NCc2ccccc2)n1 [PI3K-021, N^2,N^6-dibenzylpyridine-2,6-dicarboxamide] | > 100 |  |  |  | < 3.00 | 4.87 |  | 
O=C(Nc1cccc(O)c1)c1cccc(C(=O)Nc2cccc(O)c2)n1 [PI3K-024, N^2,N^6-bis(3-hydroxyphenyl)pyridine-2,6-dicarboxamide] |  |  |  |  |  |  | 8.22 | 7.19
